Experiment: Test for solubility of a UV-A absorber in the oil
Type: physicochemical
Details: for Solubility of a UV-A absorber: UV-A absorber dissolved to saturation in the compound
Protocol: Then, absorbance (A) of a peak observed near 350 nm was measured. Solubility was figured out from a value calculated by the following equation and a weight of a sample prepared. The measurement temperatures are at room temperature ([…]) and 50° C.

## CCC(CC(CC)C(=O)OC)C(=O)OC (stereo not drawn) [Compound 3, dimethyl 2,4-diethylglutarate]
50° C.
  Solubility of a UV-A absorber: 40.7 g/100 g
In comparison to comparative compound 1
  Solubility of the UV-A absorber, in words: excellent
Room temperature (25° C.)
  Solubility of a UV-A absorber: 23.1 g/100 g

From patent US7417162B2, “Oily ingredient for cosmetic preparation and cosmetic preparation” (Kyowa Yuka Co., Ltd., priority 2001, dated 2008)
